Reference: patent US20180185510A1, “ANTIBODY DRUG CONJUGATES OF KINESIN SPINDEL PROTEIN (KSP) INHIBITORS WITH ANTI-B7H3-ANTIBODIES” (BAYER PHARMA AKTIENGESELLSCHAFT, priority 2015, published 2018)
Each block holds one molecule with its values, some of them ahead of it.

Columns and labels:
[1] = tested on: NCI-H292: human mucoepidermoid lung carcinoma cells; assay: MTT assay, cytotoxicity of metabolites, NCI-H292; format: cell-based
Method: NCI-H292: human mucoepidermoid lung carcinoma cells, ATCC-CRL-1848, standard medium: RPMI 1640 (Biochrom; #FG1215, stab. glutamine)+10% FCS (Biochrom; #S0415).
(§1) The cells were cultivated according to the standard method using the growth media listed under C-1. The test is carried out by detaching the cells with a solution of Accutase in PBS (Biochrom AG #L2143), pelleting, resuspending in culture medium, counting and sowing into a 96-well culture plate with white bottom (Costar #3610) (NCI H292: 2500 cells/well in a total volume of 100 μl). The cells were then incubated in an incubator at 37° C. and 5% carbon dioxide. After 48 h, the medium was replaced. The metabolites in 10 μl of culture medium in concentrations from 10^−5M to 10^−13M were then pipetted to the cells (in triplicate), and the assay was then incubated in an incubator at 37° C. and 5% carbon dioxide. […] To this end, the MTT reagent was incubated with the cells for 4 h, followed by lysis of the cells overnight by addition of the detergent. The dye formed was detected at 570 nm (Infinite M1000 pro, Tecan). The measured data were used to calculate the IC50 of the growth inhibition using the DRC (dose response curve). The proliferation of cells which were not treated with test substance but were otherwise identically treated was defined as the 100% figure.

KPL4 = assay: MTT assay, cytotoxicity of metabolites, KPL4; format: cell-based; settings: 96 h incubation
Method: as §1

Caco-2 cells = assay: Flux assay for cell permeability using Caco-2 cells; settings: Caco-2, basal to apical, 2 hours
[2] = tested on: A498: human renal carcinoma cells; assay: CTG assay, cytotoxic effects of the anti-B7H3 ADCs, A498; format: cell-based; settings: growth inhibition vs day 0, 72 h incubation, B7H3-positive cells
Method: (§2) The analysis of the cytotoxic effects of the anti-B7H3 ADCs was carried out with various cell lines:
(§3) The cells were cultivated by the standard method as stated by the American Tissue Culture Collection (ATCC) for the cell lines in question.
(§4) The cells were cultivated according to the standard method using the growth media listed under C-1. […] The cells were then incubated in an incubator at 37° C. and 5% carbon dioxide. In a parallel plate, the cell vitality was determined at the start of the drug treatment (day 0) using the Cell Titer Glow (CTG) Luminescent Cell Viability Assay (Promega #G7573 and #G7571). To this end, 100 μl of the substrate were added per cell batch, the plates were then covered with aluminium foil, shaken on the plate shaker at 180 rpm for 2 minutes, allowed to stand on the laboratory bench for 8 minutes and then measured using a luminometer (Victor X2, Perkin Elmer). The substrate detects the ATP content in the living cells, generating a luminescence signal the height of which is directly proportional to the vitality of the cells. […] From the measured data, the IC50 of the growth inhibition in comparison to day 0 was calculated using the DRC (dose response curve) analysis spreadsheets with a 4-parameter fit. […]

[3] = tested on: MCF-7: human breast cancer cells; assay: CTG assay, cytotoxic effects of the anti-B7H3 ADCs, MCF-7; format: cell-based; settings: MCF7, growth inhibition vs day 0, 72 h incubation, B7H3-positive cells
Method: as §2, §3, §4

[4] = tested on: Caki-2: human renal carcinoma cells; assay: CTG assay, cytotoxic effects of the anti-B7H3 ADCs, Caki-2; format: cell-based; settings: growth inhibition vs day 0, 72 h incubation, B7H3-positive cells
[5] = tested on: Raji: human Burkitt's lymphoma cells; assay: CTG assay, cytotoxic effects of the anti-B7H3 ADCs, Raji; format: cell-based; settings: growth inhibition vs day 0, 72 h incubation, B7H3-negative cells
Method: as §2, §3, §4

[6] = Flux assay for cell permeability using Caco-2 cells; settings: human, Caco-2
[7] = target: T1, motor domain of the human kinesin spindle protein KSP/Eg5 (Homo sapiens, UniProt P52732); assay: Inhibition of the kinesin spindle protein, ATPase activity (malachite green); format: biochemical; settings: 10 nM KSP/Eg5 motor domain, microtubuli, ATP 500 μM, 2 h RT
T1 construct: The motor domain of the human kinesin spindle protein KSP/Eg5; purchased tebu-bio/Cytoskeleton Inc 027EG01-XL
T1 sequence (P52732 18-359 limits assumed): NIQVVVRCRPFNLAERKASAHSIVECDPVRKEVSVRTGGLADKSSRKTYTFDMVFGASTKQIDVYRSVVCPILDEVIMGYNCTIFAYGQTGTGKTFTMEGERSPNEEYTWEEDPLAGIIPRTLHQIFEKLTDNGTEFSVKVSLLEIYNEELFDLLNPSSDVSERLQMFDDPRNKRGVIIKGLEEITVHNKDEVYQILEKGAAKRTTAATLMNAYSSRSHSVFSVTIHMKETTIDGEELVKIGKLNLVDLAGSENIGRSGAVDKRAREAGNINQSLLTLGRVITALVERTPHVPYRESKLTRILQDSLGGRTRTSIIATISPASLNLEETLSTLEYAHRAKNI
Method: The motor domain of the human kinesin spindle protein KSP/Eg5 (tebu-bio/Cytoskeleton Inc, No. 027EG01-XL) was incubated in a concentration of 10 nM with microtubuli (bovine or porcine, tebu-bio/Cytoskeleton Inc) stabilized with 50 μg/ml taxol (Sigma No. T7191-5MG) for 5 min at RT in 15 mM PIPES, pH 6.8 (5 mM MgCl2 and 10 mM DTT, Sigma). […] Incubation was at RT for 2 h. ATPase activity was detected by detecting the inorganic phosphate formed using malachite green (Biomol). […] The positive controls used were monastrol (Sigma, M8515-1 mg) and ispinesib (AdooQ Bioscience A10486). The individual data of the dose-activity curve are eight-fold determinations. The IC50 values are means of two independent experiments.

[8] = target: T2, human B7H3 (RnDSystems, 2318-B3-050/CF) (human, UniProt Q5ZPR3 29-461); assay: ELISA; antibody captured on anti-human IgG Fc, antigen 37 ng/ml, anti-His HRP / Amplex Red
T2 construct: Bought antigen, detected with an anti-His HRP antibody, so a His tag is implied
T2 sequence (looked up): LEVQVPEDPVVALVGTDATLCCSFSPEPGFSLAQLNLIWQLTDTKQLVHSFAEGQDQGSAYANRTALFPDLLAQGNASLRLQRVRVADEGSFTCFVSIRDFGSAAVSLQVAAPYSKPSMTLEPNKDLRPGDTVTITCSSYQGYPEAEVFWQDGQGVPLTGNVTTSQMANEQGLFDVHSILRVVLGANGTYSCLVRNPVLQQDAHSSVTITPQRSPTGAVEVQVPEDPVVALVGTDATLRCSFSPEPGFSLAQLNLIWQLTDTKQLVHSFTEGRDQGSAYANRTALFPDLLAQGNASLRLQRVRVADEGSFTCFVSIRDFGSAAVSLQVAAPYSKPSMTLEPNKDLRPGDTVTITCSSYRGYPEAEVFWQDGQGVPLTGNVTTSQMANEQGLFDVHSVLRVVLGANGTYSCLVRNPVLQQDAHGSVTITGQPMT
Method: (§5) TPP5706 was synthesized as described above. Binding of TPP5706 to human B7H3 and to human B7H2 and B7H4 was characterized using ELISAs. […] After washing once with PBS, 0.05% Tween, the plate was blocked with 100% Smart Block (Candor) for one hour at 37° C. The antibody to be tested (e.g. TPP5706 or one of its derivatives) was then attached to the plate (2 μg/ml IgG in PBS, 0.05% Tween, 10% Smart Block; 1 hour, room temperature). […] After washing three times, the plate was incubated with Amplex Red for 30 minutes and then read.

[9] = target: T3, human B7H2 (RnDSystems, 8206-B7) (human, UniProt O75144 19-258, limits assumed); assay: as above
T3 construct: Bought antigen, detected with an anti-His HRP antibody
T3 sequence (looked up): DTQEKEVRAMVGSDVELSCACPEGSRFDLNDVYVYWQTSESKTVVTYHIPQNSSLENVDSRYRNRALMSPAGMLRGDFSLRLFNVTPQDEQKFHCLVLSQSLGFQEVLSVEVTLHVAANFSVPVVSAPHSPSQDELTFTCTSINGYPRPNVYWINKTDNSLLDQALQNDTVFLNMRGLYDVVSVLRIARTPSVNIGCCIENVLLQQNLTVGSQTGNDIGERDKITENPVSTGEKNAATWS
Method: as §5

[10] = target: T4, human B7H4 (RnDSystems, 6576-B7) (human, UniProt Q7Z7D3 29-258, limits assumed); assay: as above
T4 construct: Bought antigen, detected with an anti-His HRP antibody
T4 sequence (looked up): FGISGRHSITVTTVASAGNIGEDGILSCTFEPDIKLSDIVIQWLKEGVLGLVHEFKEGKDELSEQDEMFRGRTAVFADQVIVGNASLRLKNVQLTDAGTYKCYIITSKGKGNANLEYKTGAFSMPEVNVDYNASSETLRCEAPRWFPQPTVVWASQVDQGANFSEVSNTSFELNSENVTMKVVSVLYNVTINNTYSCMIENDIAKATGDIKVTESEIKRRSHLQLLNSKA
Method: as §5

[11] = NCI-H292, 96 h, 96 h incubation

Molecule: CC(C)(C)[C@H](c1cc(-c2cc(F)ccc2F)cn1Cc1ccccc1)N(CC[C@H](N)C(=O)NC(CCC(=O)O)C(=O)O)C(=O)CO.O=C(O)C(F)(F)F (stereo in doubt) [Example M25, N-{(2S)-2-Amino-4-[{(1R)-1-[1-benzyl-4-(2,5-difluorophenyl)-1H-pyrrol-2-yl]-2,2-dimethylpropyl}(glycoloyl)amino]butanoyl}-L-glutamic acid-trifluoroacetic acid (1:1)]
IC50 ([1]; NCI-H292, 96 h incubation): 500 nM
IC50 (KPL4; KPL4): 500 nM
Papp (B-A) (Caco-2 cells): 0.81 ×10⁻⁶ cm/s

Molecule: CC(C)(C)[C@H](c1cc(-c2cc(F)ccc2F)cn1Cc1ccccc1)N(CCCN)C(=O)CO [Example M09, N-(3-Aminopropyl)-N-{(1R)-1-[1-benzyl-4-(2,5-difluorophenyl)-1H-pyrrol-2-yl]-2,2-dimethylpropyl}-2-hydroxyacetamide]
IC50 [2]: 0.0165 nM
IC50 [3]: 0.015 nM
IC50 [4]: 0.0975 nM
IC50 [5]: 0.015 nM

Molecule: CC(C)(C)[C@H](c1cc(-c2cc(F)ccc2F)cn1Cc1ccccc1)N(CC[C@H](N)C(=O)NCCNC(=O)CNC(=O)CC(SC[C@H](N)C(=O)O)C(=O)O)C(=O)CO (mixture of isomers) [Example M26, 4-[(2-{[2-({(2S)-2-Amino-4-[{(1R)-1-[1-benzyl-4-(2,5-difluorophenyl)-1H-pyrrol-2-yl]-2,2-dimethylpropyl}(glycoloyl)amino]butanoyl}amino)ethyl]amino}-2-oxoethyl)amino]-2-{[(2R)-2-amino-2-carboxyethyl]sulphanyl}-4-oxobutanoic acid-trifluoroacetic acid (1:1)]
IC50 [1, 11]: 63.8 nM
Papp B→A at 2 h [6]: 1.3 ×10⁻⁶ cm/s

Molecule: CC(C)(C)C(c1cc(-c2cc(F)ccc2F)cn1Cc1ccccc1)N(CC[C@H](N)C(=O)NCCNC(=O)CN1C(=O)CC(SC[C@H](N)C(=O)O)C1=O)C(=O)CO.O=C(O)C(F)(F)F (stereo partly drawn) [Example M1, S-[1-(2-{[2-({(2S)-2-Amino-4-[{(1R)-1-[1-benzyl-4-(2,5-difluorophenyl)-1H-pyrrol-2-yl]-2,2-dimethylpropyl}(glycoloyl)amino]butanoyl}amino)ethyl]amino}-2-oxoethyl)-2,5-dioxopyrrolidin-3-yl]-L-cysteine/trifluoroacetic acid (1:1)]
IC50 [1, 11]: 500 nM
IC50 (KPL4; KPL4, 96 h): 500 nM
Papp B→A at 2 h [6]: 0.78 ×10⁻⁶ cm/s

Molecule: CC(C)(C)[C@H](c1cc(-c2cc(F)ccc2F)cn1Cc1ccccc1)N(CCCN)C(=O)CSC[C@H](NC(=O)CCOCCOCCOCCOCCNC(=O)CNC(=O)C(CC(=O)O)SC[C@H](N)C(=O)O)C(=O)O (stereo partly drawn) [Example M21, (2R,24S,27R)-27-Amino-2-[({2-[(3-aminopropyl) {(1R)-1-[1-benzyl-4-(2,5-difluorophenyl)-1H-pyrrol-2-yl]-2,2-dimethylpropyl}amino]-2-oxoethyl}sulphanyl)methyl]-24-(carboxymethyl)-4,20,23-trioxo-7,10,13,16-tetraoxa-25-thia-3,19,22-triazaoctacosane-1,28-dioic acid/trifluoroacetic acid (1:2)]
IC50 [7]: 2.31 nM

IC50 [7]: 1.07 nM
Molecule: CC(C)(C)[C@H](c1cc(-c2cc(F)ccc2F)cn1Cc1ccccc1)N(CCCN)C(=O)CO [Example M9, N-(3-Aminopropyl)-N-{(1R)-1-[1-benzyl-4-(2,5-difluorophenyl)-1H-pyrrol-2-yl]-2,2-dimethylpropyl}-2-hydroxyacetamide]

Quotient signal (B7)/signal (buffer) [8]: 294
Quotient signal (B7)/signal (buffer) [9]: < 1.5
Quotient signal (B7)/signal (buffer) [10]: < 1.5
B1: TPP-5706 (antibody, human IgG1, kappa, V domains shown)
VH: QVQLQQPGAELVKPGASVKMSCKASGYTFTIYNVHWIKQTPGQGLEWMGTIFPGNGDTSYNQKFKDKATLTTDKSSKTAYMQLNSLTSEDSAVYYCARWDDGNVGFAHWGQGTLVTVSA
VL: DIQMTQSPASLSASVGETVTITCRASENINNYLTWFQQKQGKSPQLLVYHAKTLAEGVPSRFSGSGSGTQFSLKINSLQPEDFGSYYCQHHYGTPPTFGGGTKLEIKR
notes: Chimera of the murine Fv of the antibody from hybridoma PTA-4058 with the Ch1-Ch3 regions of a human IgG1; expressed as complete IgG; also called anti-B7H3 AK1B
